Results from patent US6096725A, “Methods of using αGal oligosaccharides as immune system targeting agents” (Neose Technologies, Inc., priority 1997, dated 2000).

Key:
[1] = system: anti-αGal IgG and IgM antibodies; assay: In vitro mouse laminin ELISA: soluble oligosaccharides as neutralizers of anti-αGal antibodies; type: binding; details: serum pre-incubated with oligosaccharide 1 hour 37° C.; result in words
Source text: In vitro laminin ELISA evaluation of αGal oligosaccharides as neutralizers of anti-αGal antibodies. Mouse laminin is a basement membrane glycoprotein that expresses 50-70 oligosaccharides terminating in Galα1-3Gal, i.e., the αGal motif (Arumugham et al., 1986, Biochem. Biophys. Aeta 883:112). In this assay, immobilization of mouse laminin on microtiter plates serves as a capture ligand for anti-αGal antibodies. […] The example provides a method by which to determine the ability of αGal oligosaccharides and pharmaceutically acceptable derivative of the invention to bind to anti-αGal antibodies and to thereby remove these antibodies from the serum, neutralize anti-αGal antibodies, and/or target anti-αGal directed complement-mediated lytic attack to specific tissue or cell types. The example also provides a method by which the effectiveness of the methods of the invention can be evaluated and dosages determined.
Sera were mixed with serial dilutions of αGal oligosaccharides (αGal-CHO) at 37° C. for 1 hour, then added to mouse laminin-coated microtiter plates and incubated for 1 hour to allow binding. The microtiter plates were coated with 20 μg/mL mouse laminin in 50 mM NaHCO3 buffer, pH 9.5 at 4° C. overnight, blocked with SuperBlock solution (Pierce) for 2 hours, and then washed 3 times with SuperBlock solution. After washing excess serum away, bound IgG and IgM was measured by adding goat anti-human IgG (or IgM) conjugated to alkaline phosphatase and incubating for 1 hour, washing, and adding substrate (pNPP).

[2] = system: mouse endothelial cell line MAE; assay: Cytotoxicity of baboon serum against MAE cells with exogenously added αGal pentasaccharide; type: cell-based
Method: FIG. 4 Cytotoxicity of serum from a baboon receiving αGal pentasaccharide (αGal-LNnT) intravenously. Shaded circles represent cytotoxicity of serum as recovered from baboon against mouse endothelial cell line MAE. Other lines indicate varying concentrations of exogenously added αGal-pentasaccharide into cytotoxicity assay. Added concentrations of the αGal pentasaccharide are depicted as follows: 2.0 mM, open circle; 1.0 mM, ×; 0.5 mM, diamond; and 0.25 mM, open square. […] Sera were incubated with serial dilutions of αGal oligosaccharides at 37° C. for 1 hour, then added to αGal-expressing monolayers (pig kidney cells, PK-15) in Terasaki plates for 1 hour at 37° C. Cytotoxicity was mediated by either endogenous complement, or the sera were de-complemented (heat inactivated for 30 minutes at 56° C.) and exogenous (rabbit) complement was added. After washing away excess serum, the viable dye mix "live-dead" (calcein AM/ethidium homodimer (Molecular Probes Inc., Eugene Oreg.)) was added and monolayers were scored for viability by fluorescence microscopy. Three Baboons were outfitted with indwelling venous and arterial catheters to the femoral vessels, and held in place with the aid of a jacket. Oligosaccharides were administered through the catheter in a 15 minute continuous infusion.

[3] = system: mouse endothelial cell line, MAE; type: cell-based; details: 240 min
[4] = system: pig kidney endothelial cell line, PK-15; type: cell-based; details: 240 min
Method: Sera were incubated with serial dilutions of αGal oligosaccharides at 37° C. for 1 hour, then added to αGal-expressing monolayers (pig kidney cells, PK-15) in Terasaki plates for 1 hour at 37° C. Cytotoxicity was mediated by either endogenous complement, or the sera were de-complemented (heat inactivated for 30 minutes at 56° C.) and exogenous (rabbit) complement was added. After washing away excess serum, the viable dye mix "live-dead" (calcein AM/ethidium homodimer (Molecular Probes Inc., Eugene Oreg.)) was added and monolayers were scored for viability by fluorescence microscopy.
The two xenotransplant baboons were outfitted with an indwelling catheter to the femoral vein to infuse compound and a catheter to the femoral artery for blood sampling. Following the transplant procedure, but just prior to providing circulatory access to the xenograft, the oligosaccharide was administered by i.v. pump through the catheter in a 15 min loading dose, followed by continuous 4 hour infusion to achieve 2.5 mM blood concentration (as determined by calculations presented in Table 2). […] Blood specimens collected for plasma were immediately centrifuged and the plasma withdrawn and stored frozen at -20° C. […] Arterial pressure was monitored in the recipient baboon by intermittent automatic cuff recordings.

[5] = set-up: species or system baboon; details: in vivo
Method: (§1) The two xenotransplant baboons were outfitted with an indwelling catheter to the femoral vein to infuse compound and a catheter to the femoral artery for blood sampling. Following the transplant procedure, but just prior to providing circulatory access to the xenograft, the oligosaccharide was administered by i.v. pump through the catheter in a 15 min loading dose, followed by continuous 4 hour infusion to achieve 2.5 mM blood concentration (as determined by calculations presented in Table 2). […] Blood specimens collected for plasma were immediately centrifuged and the plasma withdrawn and stored frozen at -20° C. Blood specimens collected for serum were clotted at 4° C. overnight and the withdrawn serum frozen at -20° C. The αGal pentasaccharide was prepared according to the enzymatic methods set forth in example 6.2 and stored as a dry, white, solid powder. The oligosaccharide was dissolved in 250 mL sterile infusion grade saline to a concentration of 0.154 g/mL, or 177 mM. Induction anesthesia was with ketamine hydrochloride 5 mg/kg/body weight in and 0.5 mg/kg of xylazine iv. Intravenous fluid of approximately 20 ml/kg body weight was given during the course of the operative procedure through either a peripheral or central vein. Atropine 0.5 mg/kg was given iv. […] Arterial pressure was monitored in the recipient baboon by intermittent automatic cuff recordings.

[6] = Human dose and half-life estimates extrapolated from baboon pharmacokinetics; details: human patient of 70 Kg
Method: ^1 To achieve a steady state serum concentration for monovalent αGal pentasaccharide of 1 mM (i.e., 0.9 mg/mL) in a human patient of 70 Kg, it is estimated that a loading dose of 412 mg/Kg be administered in the form of a bolus or 15 minute infusion, followed by a continuous infusion of 30 g/h over a 14 day period (see Table 2 for further αGal trisaccharide and αGal pentasaccharide 2 infusion regimens).
The clearance is used to calculate the infusion rate needed to maintain a desired drug concentration. The half-life describes how quickly concentrations diminish with time. Mathematical formulations known in the art were applied to estimate the pharmacokinetic parameters of the αGal trisaccharide and αGal pentasaccharide. […] Compared to other drugs, the volumes of distribution of these oligosaccharides are low, less than the extravascular water volume (<400 mL/kg). The clearance is typical of compounds eliminated by GFR (glomerular filtration rate).

anti-αGal antibody = assay: ELISA of reactive anti-αGal antibody in sera of xenotransplanted baboons; type: binding, baboon; details: period during which serum concentration exceeded 1 mM; data not shown
Method: as §1, with “recordings. […]” for “recordings.”

In the case of `CC(=O)N[C@H]1[C@H](O[C@H]2[C@@H](O)[C@@H](CO)O[C@@H](O[C@H]3[C@H](O)[C@@H](O)C(O)O[C@@H]3CO)[C@@H]2O)O[C@H](CO)[C@@H](O[C@@H]2O[C@H](CO)[C@H](O)[C@H](O[C@H]3O[C@H](CO)[C@H](O)[C@H](O)[C@H]3O)[C@H]2O)[C@@H]1O` (stereo partly drawn) [αGal pentasaccharide, Galα1-3Galβ1-4GlcNAcβ1-3Galβ1-4Glc], the “Inhibition of anti-αGal IgG and IgM antibody binding to immobilized mouse laminin” value [1] is reported as “slightly better inhibitor of both IgG and IgM binding to laminin than αGal disaccharide”, the “Inhibition of MAE cell cytotoxicity, in words” value ([2]; baboon serum (FIG. 4), similar results with pig PK15 cells) is reported as “fully inhibits MAE cell cytotoxicity” and the “Concentration of αGal pentasaccharide that inhibits serum cytotoxicity of MAE cells” value ([2]; baboon serum, exogenously added oligosaccharide (FIG. 4)) is reported as “greater than 1 mM”. For the same compound, the “Reduction of cytotoxicity of baboon sera against MAE cells” value [3] was 100%, the “Reduction of cytotoxicity of baboon sera against PK-15” value [4] was 85-95% and the “Blood concentration relative to prediction from earlier pharmacokinetic infusions” value [5] was “approximately twice what was predicted”. For the same compound, the Estimated continuous infusion ([6]; 1 mM steady state, over a 14 day period) was 30 g/h, the “Estimated loading dose (bolus or 15 minute infusion)” value ([6]; steady state serum concentration 1 mM (0.9 mg/mL)) was 412 mg/kg and the “Reactive anti-αGal antibody titer by ELISA (mouse laminin, α-Gal-albumin neoglycoconjugates, PK-15 cells)” value (anti-αGal antibody) was “pronounced reduction in the anti-αGal antibody titer”.
